The values below come from ChEMBL document CHEMBL1817646, “Chromomycin SA analogs from a marine-derived Streptomyces sp” (Bioorg Med Chem, 2011).

The nature of series [1]: Cytotoxicity against human HCC44 cells after 96 hrs by Cell Titer Glo assay. The series is classed as functional, cell-based. As to conditions: HCC44, 96 h.
Another series concerns A549. As to the kind of experiment: Cytotoxicity against human A549 cells after 96 hrs by Cell Titer Glo assay. As to conditions: A549, 96 h. Format: functional, cell-based. Background: ATP-based viability assays read luminescence as a measure of living cells.
A short description of series [2]: Ratio IC50 for compound to mithramycin IC50 for mouse 3T3 cells. The series is classed as cell-based. The note with it: NIH3T3 cells, read-out: Ratio IC50.

What is called IC50 is the midpoint of a concentration-inhibition curve. On to `COC(=O)[C@@H](OC)[C@@H]1Cc2cc3cc(O[C@H]4C[C@@H](O[C@@H]5C[C@@H](O)[C@H](OC)[C@@H](C)O5)[C@H](OC(C)=O)[C@@H](C)O4)c(C)c(O)c3c(O)c2C(=O)[C@H]1O[C@H]1C[C@H](O[C@H]2C[C@H](O[C@H]3C[C@@](C)(O)[C@@H](O)[C@H](C)O3)[C@H](O)[C@@H](C)O2)[C@H](O)[C@@H](C)O1`, for which inhibition in series [1] was half-maximal at 3.4 µM (IC50). Same read-out and setting: to `COC(=O)[C@@H](OC)[C@@H]1Cc2cc3cc(O[C@H]4C[C@@H](O[C@@H]5C[C@@H](O)[C@H](OC)[C@@H](C)O5)[C@H](OC(C)=O)[C@@H](C)O4)c(C)c(O)c3c(O)c2C(=O)[C@H]1O[C@H]1C[C@H](O[C@H]2C[C@H](O[C@H]3C[C@@](C)(O)[C@@H](OC(=O)C(C)C)[C@H](C)O3)[C@H](O)[C@@H](C)O2)[C@H](O)[C@@H](C)O1` belongs 0.056 µM. On to `CO[C@H]1[C@H](O)C[C@@H](O[C@@H]2C[C@H](Oc3cc4cc5c(c(O)c4c(O)c3C)C(=O)[C@@H](O[C@H]3C[C@H](O[C@H]4C[C@H](O[C@H]6C[C@@](C)(O)[C@@H](O)[C@H](C)O6)[C@H](O)[C@@H](C)O4)[C@H](O)[C@@H](C)O3)[C@H]([C@H](OC)C(=O)[C@@H](O)[C@@H](C)O)C5)O[C@H](C)[C@H]2O)O[C@@H]1C`, for which the IC50 (with A549; in series [1]) was > 50 µM each time. For `CO[C@H]1[C@H](O)C[C@@H](O[C@@H]2C[C@H](Oc3cc4cc5c(c(O)c4c(O)c3C)C(=O)[C@@H](O[C@H]3C[C@H](O[C@H]4C[C@H](O[C@H]6C[C@@](C)(O)[C@@H](OC(=O)C(C)C)[C@H](C)O6)[C@H](O)[C@@H](C)O4)[C@H](O)[C@@H](C)O3)[C@H]([C@H](OC)C(=O)[C@@H](O)[C@@H](C)O)C5)O[C@H](C)[C@H]2OC(C)=O)O[C@@H]1C` [CHROMOMYCIN A2], the IC50 in the series with A549 turned out to be 0.00044 µM; in series [1], 0.00026 µM. The corresponding values for `CO[C@@H]1[C@H](O)C[C@@H](O[C@@H]2C[C@H](Oc3cc4cc5c(c(O)c4c(O)c3C)C(=O)[C@@H](O[C@H]3C[C@@H](O[C@H]4C[C@@H](O[C@H]6C[C@](C)(O)[C@@H](OC(C)=O)[C@H](C)O6)[C@H](O)[C@@H](C)O4)[C@H](O)[C@@H](C)O3)[C@H]([C@H](OC)C(=O)[C@@H](O)[C@@H](C)O)C5)O[C@H](C)[C@@H]2OC(C)=O)O[C@@H]1C` [CHROMOMYCIN A3] are 0.042 µM and 0.001 µM. Turning to `CO[C@H]1[C@H](O)C[C@@H](O[C@@H]2C[C@H](Oc3cc4cc5c(c(O)c4c(O)c3C)C(=O)[C@@H](O[C@H]3C[C@H](O[C@H]4C[C@H](O[C@H]6C[C@@](C)(O)[C@@H](OC(=O)C(C)C)[C@H](C)O6)[C@H](O)[C@@H](C)O4)[C@H](O)[C@@H](C)O3)[C@H]([C@H](OC)C(=O)O)C5)O[C@H](C)[C@H]2OC(C)=O)O[C@@H]1C` [CHROMOMYCIN SA2], the IC50 was found to be 1.5 µM with A549 and 0.78 µM in series [1].

For the compound `CO[C@H]1[C@H](O)C[C@@H](O[C@@H]2C[C@H](Oc3cc4cc5c(c(O)c4c(O)c3C)C(=O)[C@@H](O[C@H]3C[C@H](O[C@H]4C[C@H](O[C@H]6C[C@@](C)(O)[C@@H](O)[C@H](C)O6)[C@H](O)[C@@H](C)O4)[C@H](O)[C@@H](C)O3)[C@H]([C@H](OC)C(=O)O)C5)O[C@H](C)[C@H]2OC(C)=O)O[C@@H]1C` [CHROMOMYCIN SA3], the IC50 was > 50 µM with A549 and > 33.3 µM in series [1]. The matching figures for `CO[C@H]1[C@H](O)C[C@@H](O[C@@H]2C[C@H](Oc3cc4cc5c(c(O)c4c(O)c3C)C(=O)[C@@H](O[C@H]3C[C@H](O[C@H]4C[C@H](O[C@H]6C[C@@](C)(O)[C@@H](OC(C)=O)[C@H](C)O6)[C@H](O)[C@@H](C)O4)[C@H](O)[C@@H](C)O3)[C@H]([C@H](OC)C(=O)O)C5)O[C@H](C)[C@H]2OC(C)=O)O[C@@H]1C` [CHROMOMYCIN SA]: 0.56 µM and 0.21 µM. On to `CO[C@H]1[C@H](O)C[C@@H](O[C@@H]2C[C@H](Oc3cc4cc5c(c(O)c4c(O)c3C)C(=O)[C@@H](O[C@H]3C[C@H](O[C@H]4C[C@H](O[C@H]6C[C@@](C)(O)[C@@H](O)[C@H](C)O6)[C@H](O)[C@@H](C)O4)[C@H](O)[C@@H](C)O3)[C@H]([C@H](OC)C(=O)[C@@H](O)[C@@H](C)O)C5)O[C@H](C)[C@H]2OC(C)=O)O[C@@H]1C` [DEACETYL CHROMOMYCIN A3], for which the IC50 in the series with A549 turned out to be 1.2 µM; in series [1], 0.67 µM. As to `CO[C@H](C(=O)[C@@H](O)[C@@H](C)O)[C@@H]1Cc2cc3cc(O[C@H]4C[C@@H](O[C@H]5C[C@@H](O)[C@H](O)[C@@H](C)O5)[C@H](O)[C@@H](C)O4)c(C)c(O)c3c(O)c2C(=O)[C@H]1O[C@H]1C[C@@H](O[C@H]2C[C@@H](O[C@H]3C[C@](C)(O)[C@H](O)[C@@H](C)O3)[C@@H](O)[C@@H](C)O2)[C@H](O)[C@@H](C)O1` [PLICAMYCIN], the selectivity ratio in series [2] came out at 1500.
